Test results reported in patent publication US20020137929A1, “1 - (3-heterocyclylphenyl) isothiourea, -isourea, -guanidine and -amidine herbicidal agents” (Intellectual Property Department, BASF Aktiengesellschaft, priority 1998, published 2002).

Experiments:
ABUTH (Velvetleaf) = assay: Postemergence herbicidal evaluation; type: in vivo, Abutilon theophrasti
How it was run: (§1)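 ~2-wk seedlings; postemergence spray, 40 psi; vehicle 1:1 acetone:water + 0.5% Tween 20; rate ≈0.0156–0.500 kg/ha; greenhouse hold; scored 4–5 wk after treatment, 0–9 scale vs control; repeat tests averaged.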

AMBEL (Ragweed, Common) [1] = assay: Postemergence herbicidal evaluation; type: in vivo, Ambrosia artemisifolia
How it was run: as §1

[2] = tested on: CHEAL (Lambsquarters, Common); assay: Postemergence herbicidal evaluation; type: in vivo, Chenopodium album
How it was run: as §1

ECHCG (Barnyardgrass) = assay: Postemergence herbicidal evaluation; type: in vivo, Echinochloa crus-galli
How it was run: as §1

[3] = tested on: GLXMAW (Soybean, Williams); assay: Postemergence herbicidal evaluation; type: in vivo, Glycine max, (L.) Merr. cv Williams
How it was run: as §1

ORYSAT (Rice, Tebonnet) = assay: Postemergence herbicidal evaluation; type: in vivo, Oryza sativa, (L.) Tebonnet
How it was run: as §1

ZEAMX (Corn, Field) = assay: Postemergence herbicidal evaluation; type: in vivo, Zea mays
How it was run: as §1

AMBEL (Ragweed, Common) [4] = assay: Preemergence herbicidal evaluation; type: in vivo, Ambrosia artemisifolia; conditions: rated 4-5 weeks after treatment
How it was run: (§2)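 Rating at 4–5 wk post-spray on a 0–9 visual scale vs control. Application: aqueous acetone, ~0.0156–0.500 kg/ha, to soil surface after seeding, preemergence.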

CASOB (Sicklepod) = assay: Preemergence herbicidal evaluation; type: in vivo, Cassia obtusifolia; conditions: rated 4-5 weeks after treatment
How it was run: as §2

[5] = tested on: CHEAL (Lambsquarters, Common); assay: Preemergence herbicidal evaluation; type: in vivo, Chenopodium album; conditions: rated 4-5 weeks after treatment
How it was run: as §2

GALAP (Galium) = assay: Preemergence herbicidal evaluation; type: in vivo, Galium aparine; conditions: rated 4-5 weeks after treatment
How it was run: as §2

CYPSE (Flatsedge) [6] = assay: Preemergence weed control under flooded paddy conditions; type: in vivo, Cyperus serotinus; conditions: rated 3-4 weeks after treatment
How it was run: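 Using flooded silt loam (water 1.5 to 3 cm deep), seeds sown in the top 0.5 cm were exposed preemergence to compound pipetted into the flood at about 0.0313 to 0.500 kg/ha. Effects were scored 0-9 by eye three to four weeks later.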

CYPIR (Rice Flatsedge) = assay: Postemergence weed control under flooded paddy conditions; type: in vivo, Cyperus iria; conditions: postemergence weeds, 3-4 weeks after treatment
How it was run: (§3)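 Weeds 3 to 5 cm tall and rice seedlings at the 1.5 to 2.5 leaf stage were flooded, with water held 1.5 to 3 cm above the soil. Compounds in 50/50 v/v aqueous/acetone went into the flood water at about 0.0313 to 0.500 kg/ha. Visual 0-9 ratings versus control were made 3 to 4 weeks later.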

CYPSE (Flatsedge) [7] = assay: as above; type: in vivo, Cyperus serotinus; conditions: postemergence weeds, 3-4 weeks after treatment
How it was run: as §3

CCOC(=O)CN1C(=O)C(CC(=O)O)O/C1=N/c1cc(-n2c(=O)cc(C(F)(F)F)n(C)c2=O)c(F)cc1Cl (stereo not shown) [Compound 41, 2-{{2-Chloro-5-[3,6-dihydro-3-methyl-2,6-dioxo-4-(trifluoromethyl)-1(2H)-pyrimidinyl]-4-fluoro-phenyl}imino}-4-oxo-3,5-oxazolidinediacetic acid, 3-ethyl ester]
Postemergence herbicidal rating ABUTH (ABUTH (Velvetleaf); Rate 0.0158 kg/ha): 9.0 | Postemergence herbicidal rating ABUTH (ABUTH (Velvetleaf); Rate 0.0315 kg/ha): 9.0 | Postemergence herbicidal rating ABUTH (ABUTH (Velvetleaf); Rate 0.0630 kg/ha): 9.0 | Postemergence herbicidal rating AMBEL (AMBEL (Ragweed, Common) [1]; Rate 0.0158 kg/ha): 9.0 | Postemergence herbicidal rating AMBEL (AMBEL (Ragweed, Common) [1]; Rate 0.0315 kg/ha): 9.0 | Postemergence herbicidal rating AMBEL (AMBEL (Ragweed, Common) [1]; Rate 0.0630 kg/ha): 9.0 | Postemergence herbicidal rating CHEAL ([2]; Rate 0.0158 kg/ha): 3.0 | Postemergence herbicidal rating CHEAL ([2]; Rate 0.0315 kg/ha): 7.0 | Postemergence herbicidal rating CHEAL ([2]; Rate 0.0630 kg/ha): 9.0 | Postemergence herbicidal rating ECHCG (ECHCG (Barnyardgrass); Rate 0.0158 kg/ha): 2.0 | Postemergence herbicidal rating ECHCG (ECHCG (Barnyardgrass); Rate 0.0315 kg/ha): 7.0 | Postemergence herbicidal rating ECHCG (ECHCG (Barnyardgrass); Rate 0.0630 kg/ha): 9.0 | Postemergence herbicidal rating GLXMAW ([3]; Rate 0.0158 kg/ha): 8.0 | Postemergence herbicidal rating GLXMAW ([3]; Rate 0.0315 kg/ha): 8.0 | Postemergence herbicidal rating GLXMAW ([3]; Rate 0.0630 kg/ha): 9.0 | Postemergence herbicidal rating ORYSAT (ORYSAT (Rice, Tebonnet); Rate 0.0158 kg/ha): 2.5 | Postemergence herbicidal rating ORYSAT (ORYSAT (Rice, Tebonnet); Rate 0.0315 kg/ha): 3.5 | Postemergence herbicidal rating ORYSAT (ORYSAT (Rice, Tebonnet); Rate 0.0630 kg/ha): 3.5 | Postemergence herbicidal rating ZEAMX (ZEAMX (Corn, Field); Rate 0.0158 kg/ha): 7.0 | Postemergence herbicidal rating ZEAMX (ZEAMX (Corn, Field); Rate 0.0315 kg/ha): 8.0 | Postemergence herbicidal rating ZEAMX (ZEAMX (Corn, Field); Rate 0.0630 kg/ha): 7.5 | Preemergence herbicidal rating AMBEL (AMBEL (Ragweed, Common) [4]; rate 0.0156 kg/ha): 0.0 | Preemergence herbicidal rating AMBEL (AMBEL (Ragweed, Common) [4]; rate 0.0313 kg/ha): 1.0 | Preemergence herbicidal rating AMBEL (AMBEL (Ragweed, Common) [4]; rate 0.0625 kg/ha): 2.0 | Preemergence herbicidal rating AMBEL (AMBEL (Ragweed, Common) [4]; rate 0.1250 kg/ha): 9.0 | Preemergence herbicidal rating AMBEL (AMBEL (Ragweed, Common) [4]; rate 0.2500 kg/ha): 8.0 | Preemergence herbicidal rating CASOB (CASOB (Sicklepod); rate 0.0156 kg/ha): 0.0 | Preemergence herbicidal rating CASOB (CASOB (Sicklepod); rate 0.0313 kg/ha): 0.0 | Preemergence herbicidal rating CASOB (CASOB (Sicklepod); rate 0.0625 kg/ha): 0.0 | Preemergence herbicidal rating CASOB (CASOB (Sicklepod); rate 0.1250 kg/ha): 9.0 | Preemergence herbicidal rating CASOB (CASOB (Sicklepod); rate 0.2500 kg/ha): 9.0 | Preemergence herbicidal rating CHEAL ([5]; rate 0.0156 kg/ha): 0.0 | Preemergence herbicidal rating CHEAL ([5]; rate 0.0313 kg/ha): 4.0 | Preemergence herbicidal rating CHEAL ([5]; rate 0.0625 kg/ha): 9.0 | Preemergence herbicidal rating CHEAL ([5]; rate 0.1250 kg/ha): 9.0 | Preemergence herbicidal rating CHEAL ([5]; rate 0.2500 kg/ha): 9.0 | Preemergence herbicidal rating GALAP (GALAP (Galium); rate 0.0156 kg/ha): 0.0 | Preemergence herbicidal rating GALAP (GALAP (Galium); rate 0.0625 kg/ha): 0.0 | Preemergence herbicidal rating GALAP (GALAP (Galium); rate 0.1250 kg/ha): 0.0 | Preemergence herbicidal rating GALAP (GALAP (Galium); rate 0.2500 kg/ha): 0.0 | Herbicidal rating CYPSE (CYPSE (Flatsedge) [6]; 0.0313 kg/ha): 0.0 | Herbicidal rating CYPSE (CYPSE (Flatsedge) [6]; 0.0625 kg/ha): 0.0 | Herbicidal rating CYPSE (CYPSE (Flatsedge) [6]; 0.1250 kg/ha): 2.0 | Herbicidal rating CYPSE (CYPSE (Flatsedge) [6]; 0.2500 kg/ha): 7.0 | Herbicidal rating CYPIR (CYPIR (Rice Flatsedge); rate 0.0313 kg/ha): 0.0 | Herbicidal rating CYPIR (CYPIR (Rice Flatsedge); rate 0.0625 kg/ha): 0.0 | Herbicidal rating CYPIR (CYPIR (Rice Flatsedge); rate 0.1250 kg/ha): 0.0 | Herbicidal rating CYPIR (CYPIR (Rice Flatsedge); rate 0.2500 kg/ha): 4.0 | Herbicidal rating CYPSE (CYPSE (Flatsedge) [7]; rate 0.0313 kg/ha): 0.0 | Herbicidal rating CYPSE (CYPSE (Flatsedge) [7]; rate 0.0625 kg/ha): 0.0 | Herbicidal rating CYPSE (CYPSE (Flatsedge) [7]; rate 0.1250 kg/ha): 2.0 | Herbicidal rating CYPSE (CYPSE (Flatsedge) [7]; rate 0.2500 kg/ha): 7.0
